Publication PMC5679212 (The Biochemical journal, 2014)

What was measured:
Format in all cases: binding
[1] = molecular target: ULK4 (unc-51 like kinase 4) (Homo sapiens, UniProt Q96C45); assay: thermal-shift assay
[2] = molecular target: T1, MLKL (mixed lineage kinase domain-like) (Homo sapiens, UniProt Q8NB16); assay: ITC and thermal-shift assay
T1 sequence (Q8NB16 190-471 limits assumed): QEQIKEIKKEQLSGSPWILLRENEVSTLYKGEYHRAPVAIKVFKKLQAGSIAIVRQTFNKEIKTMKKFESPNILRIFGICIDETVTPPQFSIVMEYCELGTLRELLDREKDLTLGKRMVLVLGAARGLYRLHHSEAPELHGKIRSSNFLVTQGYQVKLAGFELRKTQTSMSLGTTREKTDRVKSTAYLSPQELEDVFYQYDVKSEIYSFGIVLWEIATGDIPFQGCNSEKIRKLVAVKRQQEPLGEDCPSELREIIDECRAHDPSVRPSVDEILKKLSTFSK

[3] = molecular target: T2, EphB6 (Ephrin type-B receptor 6) (Homo sapiens, UniProt O15197); assay: thermal-shift assay
T2 sequence (O15197 670-919 limits assumed): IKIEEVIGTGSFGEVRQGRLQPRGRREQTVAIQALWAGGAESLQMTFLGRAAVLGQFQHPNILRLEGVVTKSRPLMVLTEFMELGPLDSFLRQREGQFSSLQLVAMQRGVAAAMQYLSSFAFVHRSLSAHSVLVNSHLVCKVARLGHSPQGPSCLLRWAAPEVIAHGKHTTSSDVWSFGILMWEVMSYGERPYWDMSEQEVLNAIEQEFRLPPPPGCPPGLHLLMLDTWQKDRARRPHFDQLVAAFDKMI

TYK2(JH2) = TYK2(JH2) (Homo sapiens, UniProt P29597); assay: thermal-shift assay
TYK2(JH2), sequence (P29597 575-869): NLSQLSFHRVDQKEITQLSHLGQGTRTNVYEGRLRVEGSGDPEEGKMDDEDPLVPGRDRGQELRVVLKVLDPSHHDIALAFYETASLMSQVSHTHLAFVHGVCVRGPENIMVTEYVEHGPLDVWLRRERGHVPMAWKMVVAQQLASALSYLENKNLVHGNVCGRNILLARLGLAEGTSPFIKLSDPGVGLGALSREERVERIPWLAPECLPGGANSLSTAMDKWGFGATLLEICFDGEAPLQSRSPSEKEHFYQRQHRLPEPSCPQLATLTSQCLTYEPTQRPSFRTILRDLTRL

ULK4 (unc-51 like kinase 4), sequence (Q96C45 1-288 limits assumed): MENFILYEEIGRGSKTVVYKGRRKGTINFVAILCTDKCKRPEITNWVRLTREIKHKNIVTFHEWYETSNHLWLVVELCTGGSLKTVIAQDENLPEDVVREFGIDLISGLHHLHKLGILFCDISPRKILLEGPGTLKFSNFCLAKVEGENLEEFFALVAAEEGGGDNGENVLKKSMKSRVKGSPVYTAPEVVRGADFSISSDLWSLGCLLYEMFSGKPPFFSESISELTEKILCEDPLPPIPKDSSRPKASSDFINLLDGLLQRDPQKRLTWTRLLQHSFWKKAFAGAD

SMILES | thermal-shift assay (0.2 mM nucleotide) [1] | Kd [2] [µM] | thermal-shift assay (0.2 mM nucleotide) [3] | thermal-shift assay (40 μM ligand, ΔTm ≥3 °C) (TYK2(JH2))
Nc1ncnc2c1ncn2[C@@H]1O[C@H](COP(=O)(O)OP(=O)(O)OP(=O)(O)O)[C@@H](O)[C@H]1O [ATP] | we observed that ATP binding was still accomplished by EphB6 and ULK4 (Figures 3C and 3E) | ~15 | we observed that ATP binding was still accomplished by EphB6 and ULK4 (Figures 3C and 3E) | 
NCc1ccc(Nc2ncc(F)c(Nc3ccccc3)n2)cc1 [DAP, N′2′-(4-aminomethyl-phenyl)-5-fluoro-N′4′-phenyl-pyrimidine-2,4-diamine] |  |  |  | consistent with the binding to the small-molecule kinase inhibitors DAP and VI16832 observed in the present study (Figure 2E)
